Reference: PMC6154583, “Optimized 4,5-Diarylimidazoles as Potent/Selective Inhibitors of Protein Kinase CK1δ and Their Structural Relation to p38α MAPK” (Molecules : A Journal of Synthetic Chemistry and Natural …, 2017)

How the values were obtained:
Test in all cases: ProQinase 33PanQinase selectivity profiling
Format in all cases: biochemical
CAMK2G = CAMK2G (Homo sapiens, UniProt Q13555); settings: 100 nM, relative to control, read-out: Residual activity (%)
ASK1 = ASK1 (Homo sapiens, UniProt Q99683); settings: 100 nM, relative to control, read-out: Residual activity (%)
ARK5 = ARK5 (Homo sapiens, UniProt O60285); settings: 100 nM, relative to control, read-out: Residual activity (%)
CLK1 = CLK1 (Homo sapiens, UniProt P49759); settings: 100 nM, relative to control, read-out: Residual activity (%)
DMPK = DMPK (Homo sapiens, UniProt Q09013); settings: 100 nM, relative to control, read-out: Residual activity (%)
EPHA3 = EPHA3 (Homo sapiens, UniProt P29320); settings: 100 nM, relative to control, read-out: Residual activity (%)
ALK (GST-HIS-tag) = molecular target: T1, ALK (GST-HIS-tag) (Homo sapiens, UniProt Q9UM73); settings: 100 nM, relative to control, read-out: Residual activity (%)
T1 construct: GST; HIS; purchased ProQinase GmbH (Freiburg, Germany)

CAMK2D = CAMK2D (Homo sapiens, UniProt Q13557); settings: 100 nM, relative to control, read-out: Residual activity (%)
CLK4 = CLK4 (Homo sapiens, UniProt Q9HAZ1); settings: 100 nM, relative to control, read-out: Residual activity (%)
BUB1B = molecular target: T2, BUB1B (Homo sapiens, UniProt O60566); settings: 100 nM, relative to control, read-out: Residual activity (%)
T2 construct: purchased ProQinase GmbH

EPHA5 = EPHA5 (Homo sapiens, UniProt P54756); settings: 100 nM, relative to control, read-out: Residual activity (%)
BRSK2 = BRSK2 (Homo sapiens, UniProt Q8IWQ3); settings: 100 nM, relative to control, read-out: Residual activity (%)
CDC42BPA = molecular target: T3, CDC42BPA (Homo sapiens, UniProt Q5VT25); settings: 100 nM, relative to control, read-out: Residual activity (%)
T3 construct: purchased ProQinase GmbH

AMPK-alpha1 aa1-550 = molecular target: T4, AMPK-alpha1 aa1-550 (Homo sapiens, UniProt Q13131); settings: 100 nM, relative to control, read-out: Residual activity (%)
T4 construct: AMPK-alpha1 aa1-550; purchased ProQinase GmbH (Freiburg, Germany)

BMPR1A = molecular target: T5, BMPR1A (Homo sapiens, UniProt P36894); settings: 100 nM, relative to control, read-out: Residual activity (%)
T5 construct: purchased ProQinase GmbH

CAMK2B = CAMK2B (Homo sapiens, UniProt Q13554); settings: 100 nM, relative to control, read-out: Residual activity (%)
CK1-gamma1 = CK1-gamma1 (Homo sapiens, UniProt Q9HCP0); settings: 100 nM, relative to control
CSK = CSK (Homo sapiens, UniProt P41240); settings: 100 nM, relative to control, read-out: Residual activity (%)
DAPK2 = DAPK2 (Homo sapiens, UniProt Q9UIK4); settings: 100 nM, relative to control, read-out: Residual activity (%)
CHK2 = molecular target: T6, CHK2 (Homo sapiens, UniProt O96017); settings: 100 nM, relative to control, read-out: Residual activity (%)
T6 construct: purchased ProQinase GmbH

ACV-R1 = ACV-R1 (Homo sapiens, UniProt Q04771); settings: 100 nM, relative to control, read-out: Residual activity (%)
CK1-alpha1 = CK1-alpha1 (Homo sapiens, UniProt P48729); settings: 100 nM, relative to control, read-out: Residual activity (%)
BLK = BLK (Homo sapiens, UniProt P51451); settings: 100 nM, relative to control, read-out: Residual activity (%)
Aurora-C = molecular target: T7, Aurora-C (Homo sapiens, UniProt Q9UQB9); settings: 100 nM, relative to control, read-out: Residual activity (%)
T7 construct: purchased ProQinase GmbH (Freiburg, Germany)

CDK4/CycD1 = CDK4/CycD1 (Homo sapiens, UniProt P11802); settings: 100 nM, relative to control, read-out: Residual activity (%)
CK2-alpha1 = CK2-alpha1 (Homo sapiens, UniProt P68400); settings: 100 nM, relative to control, read-out: Residual activity (%)
ABL2 = ABL2 (Homo sapiens, UniProt P42684); settings: 100 nM, relative to control, read-out: Residual activity (%)
EIF2AK2 = molecular target: T8, EIF2AK2 (Homo sapiens, UniProt P19525); settings: 100 nM, relative to control, read-out: Residual activity (%)
T8 construct: purchased ProQinase GmbH

AKT2 aa107-481 = molecular target: T9, AKT2 aa107-481 (Homo sapiens, UniProt P31751); settings: 100 nM, relative to control, read-out: Residual activity (%)
T9 construct: AKT2 aa107-481; purchased ProQinase GmbH (Freiburg, Germany)

CDK7/CycH/MAT1 = CDK7/CycH/MAT1 (Homo sapiens, UniProt P50613); settings: 100 nM, relative to control, read-out: Residual activity (%)
CAMKK2 = CAMKK2 (Homo sapiens, UniProt Q96RR4); settings: 100 nM, relative to control, read-out: Residual activity (%)
EPHA1 = EPHA1 (Homo sapiens, UniProt P21709); settings: 100 nM, relative to control, read-out: Residual activity (%)
CK1-delta = CK1-delta (Homo sapiens, UniProt P48730); settings: 100 nM, relative to control, read-out: Residual activity (%)
BRK = molecular target: T10, BRK (Homo sapiens, UniProt Q13882); settings: 100 nM, relative to control, read-out: Residual activity (%)
T10 construct: purchased ProQinase GmbH

DYRK1B = DYRK1B (Homo sapiens, UniProt Q9Y463); settings: 100 nM, relative to control, read-out: Residual activity (%)
CDC42BPB = molecular target: T11, CDC42BPB (Homo sapiens, UniProt Q9Y5S2); settings: 100 nM, relative to control, read-out: Residual activity (%)
T11 construct: purchased ProQinase GmbH

BRSK1 = BRSK1 (Homo sapiens, UniProt Q8TDC3); settings: 100 nM, relative to control, read-out: Residual activity (%)
DNA-PK = DNA-PK (Homo sapiens, UniProt P78527); settings: 100 nM, relative to control, read-out: Residual activity (%)
CDK4/CycD3 = CDK4/CycD3 (Homo sapiens, UniProt P11802); settings: 100 nM, relative to control, read-out: Residual activity (%)
CHK1 = CHK1 (Homo sapiens, UniProt O14757); settings: 100 nM, relative to control, read-out: Residual activity (%)
DCAMKL2 = DCAMKL2 (Homo sapiens, UniProt Q8N568); settings: 100 nM, relative to control, read-out: Residual activity (%)
BTK = BTK (Homo sapiens, UniProt Q06187); settings: 100 nM, relative to control, read-out: Residual activity (%)

Chain of CK1-gamma1 (Q9HCP0 whole entry): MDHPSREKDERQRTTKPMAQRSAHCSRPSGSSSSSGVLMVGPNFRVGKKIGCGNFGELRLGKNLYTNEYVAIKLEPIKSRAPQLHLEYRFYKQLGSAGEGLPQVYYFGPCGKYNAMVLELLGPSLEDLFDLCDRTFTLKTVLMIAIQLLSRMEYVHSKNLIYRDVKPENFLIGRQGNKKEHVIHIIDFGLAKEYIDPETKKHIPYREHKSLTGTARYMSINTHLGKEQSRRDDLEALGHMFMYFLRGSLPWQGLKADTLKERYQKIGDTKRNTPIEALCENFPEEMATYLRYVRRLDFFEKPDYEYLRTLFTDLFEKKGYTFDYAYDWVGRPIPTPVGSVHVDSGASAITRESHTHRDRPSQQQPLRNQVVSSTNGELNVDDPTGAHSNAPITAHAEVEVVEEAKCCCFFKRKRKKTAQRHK
Chain of CDK4/CycD1 (P11802 whole entry): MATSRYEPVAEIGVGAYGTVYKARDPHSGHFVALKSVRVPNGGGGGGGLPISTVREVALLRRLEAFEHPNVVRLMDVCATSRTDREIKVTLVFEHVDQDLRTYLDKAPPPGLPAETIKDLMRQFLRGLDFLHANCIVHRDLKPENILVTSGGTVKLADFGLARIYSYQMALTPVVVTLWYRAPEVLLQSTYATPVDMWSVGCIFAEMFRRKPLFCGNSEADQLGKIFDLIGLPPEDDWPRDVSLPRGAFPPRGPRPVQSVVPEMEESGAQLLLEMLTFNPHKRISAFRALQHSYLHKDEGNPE
Chain of CDK4/CycD1 (P24385 whole entry partner): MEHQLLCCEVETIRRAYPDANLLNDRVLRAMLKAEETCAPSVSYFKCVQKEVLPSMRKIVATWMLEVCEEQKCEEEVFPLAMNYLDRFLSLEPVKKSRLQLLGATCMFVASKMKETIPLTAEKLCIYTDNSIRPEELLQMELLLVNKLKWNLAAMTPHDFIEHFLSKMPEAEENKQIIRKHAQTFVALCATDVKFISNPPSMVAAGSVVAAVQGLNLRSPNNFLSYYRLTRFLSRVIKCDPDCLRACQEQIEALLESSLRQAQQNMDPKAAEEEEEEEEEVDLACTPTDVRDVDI
Chain of CDK4/CycD3 (P11802 whole entry): as the sequence (P11802 whole entry) above
Chain of CDK4/CycD3 (P30281 whole entry partner): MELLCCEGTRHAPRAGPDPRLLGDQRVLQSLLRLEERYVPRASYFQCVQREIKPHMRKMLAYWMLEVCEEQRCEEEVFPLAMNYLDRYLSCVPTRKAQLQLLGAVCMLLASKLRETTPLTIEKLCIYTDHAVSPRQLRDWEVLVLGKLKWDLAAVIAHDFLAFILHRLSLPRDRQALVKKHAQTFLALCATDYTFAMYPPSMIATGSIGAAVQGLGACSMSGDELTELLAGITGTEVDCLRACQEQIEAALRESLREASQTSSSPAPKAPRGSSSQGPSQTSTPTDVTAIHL
Chain of CK1-delta (P48730 whole entry): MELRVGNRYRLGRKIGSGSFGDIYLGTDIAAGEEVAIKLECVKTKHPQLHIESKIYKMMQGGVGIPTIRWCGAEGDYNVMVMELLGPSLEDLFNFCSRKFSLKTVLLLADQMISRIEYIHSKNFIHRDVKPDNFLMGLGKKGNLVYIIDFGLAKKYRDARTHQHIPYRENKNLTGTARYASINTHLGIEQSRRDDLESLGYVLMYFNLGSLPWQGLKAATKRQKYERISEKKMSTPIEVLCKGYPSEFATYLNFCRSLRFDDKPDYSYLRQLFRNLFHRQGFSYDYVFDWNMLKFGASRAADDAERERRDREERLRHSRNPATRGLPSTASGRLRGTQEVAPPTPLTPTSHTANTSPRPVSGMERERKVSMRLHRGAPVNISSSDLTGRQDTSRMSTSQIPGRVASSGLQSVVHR
Chain of CAMK2G (Q13555 whole entry): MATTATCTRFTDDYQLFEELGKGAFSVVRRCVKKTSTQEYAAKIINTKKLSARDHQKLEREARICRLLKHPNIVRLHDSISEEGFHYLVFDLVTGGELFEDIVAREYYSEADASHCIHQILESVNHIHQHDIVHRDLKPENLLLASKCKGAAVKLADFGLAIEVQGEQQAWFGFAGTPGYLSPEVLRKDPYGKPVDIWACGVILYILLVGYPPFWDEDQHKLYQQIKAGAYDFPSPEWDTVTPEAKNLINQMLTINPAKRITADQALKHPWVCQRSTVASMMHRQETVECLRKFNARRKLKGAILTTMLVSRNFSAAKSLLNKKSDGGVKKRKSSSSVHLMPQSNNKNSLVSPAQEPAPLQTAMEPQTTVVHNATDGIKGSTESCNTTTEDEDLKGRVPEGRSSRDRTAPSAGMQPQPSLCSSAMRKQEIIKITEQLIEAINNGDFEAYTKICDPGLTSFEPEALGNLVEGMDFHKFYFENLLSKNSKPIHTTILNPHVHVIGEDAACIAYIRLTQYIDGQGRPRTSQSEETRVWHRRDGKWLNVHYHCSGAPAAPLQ
T3 sequence (Q5VT25 whole entry): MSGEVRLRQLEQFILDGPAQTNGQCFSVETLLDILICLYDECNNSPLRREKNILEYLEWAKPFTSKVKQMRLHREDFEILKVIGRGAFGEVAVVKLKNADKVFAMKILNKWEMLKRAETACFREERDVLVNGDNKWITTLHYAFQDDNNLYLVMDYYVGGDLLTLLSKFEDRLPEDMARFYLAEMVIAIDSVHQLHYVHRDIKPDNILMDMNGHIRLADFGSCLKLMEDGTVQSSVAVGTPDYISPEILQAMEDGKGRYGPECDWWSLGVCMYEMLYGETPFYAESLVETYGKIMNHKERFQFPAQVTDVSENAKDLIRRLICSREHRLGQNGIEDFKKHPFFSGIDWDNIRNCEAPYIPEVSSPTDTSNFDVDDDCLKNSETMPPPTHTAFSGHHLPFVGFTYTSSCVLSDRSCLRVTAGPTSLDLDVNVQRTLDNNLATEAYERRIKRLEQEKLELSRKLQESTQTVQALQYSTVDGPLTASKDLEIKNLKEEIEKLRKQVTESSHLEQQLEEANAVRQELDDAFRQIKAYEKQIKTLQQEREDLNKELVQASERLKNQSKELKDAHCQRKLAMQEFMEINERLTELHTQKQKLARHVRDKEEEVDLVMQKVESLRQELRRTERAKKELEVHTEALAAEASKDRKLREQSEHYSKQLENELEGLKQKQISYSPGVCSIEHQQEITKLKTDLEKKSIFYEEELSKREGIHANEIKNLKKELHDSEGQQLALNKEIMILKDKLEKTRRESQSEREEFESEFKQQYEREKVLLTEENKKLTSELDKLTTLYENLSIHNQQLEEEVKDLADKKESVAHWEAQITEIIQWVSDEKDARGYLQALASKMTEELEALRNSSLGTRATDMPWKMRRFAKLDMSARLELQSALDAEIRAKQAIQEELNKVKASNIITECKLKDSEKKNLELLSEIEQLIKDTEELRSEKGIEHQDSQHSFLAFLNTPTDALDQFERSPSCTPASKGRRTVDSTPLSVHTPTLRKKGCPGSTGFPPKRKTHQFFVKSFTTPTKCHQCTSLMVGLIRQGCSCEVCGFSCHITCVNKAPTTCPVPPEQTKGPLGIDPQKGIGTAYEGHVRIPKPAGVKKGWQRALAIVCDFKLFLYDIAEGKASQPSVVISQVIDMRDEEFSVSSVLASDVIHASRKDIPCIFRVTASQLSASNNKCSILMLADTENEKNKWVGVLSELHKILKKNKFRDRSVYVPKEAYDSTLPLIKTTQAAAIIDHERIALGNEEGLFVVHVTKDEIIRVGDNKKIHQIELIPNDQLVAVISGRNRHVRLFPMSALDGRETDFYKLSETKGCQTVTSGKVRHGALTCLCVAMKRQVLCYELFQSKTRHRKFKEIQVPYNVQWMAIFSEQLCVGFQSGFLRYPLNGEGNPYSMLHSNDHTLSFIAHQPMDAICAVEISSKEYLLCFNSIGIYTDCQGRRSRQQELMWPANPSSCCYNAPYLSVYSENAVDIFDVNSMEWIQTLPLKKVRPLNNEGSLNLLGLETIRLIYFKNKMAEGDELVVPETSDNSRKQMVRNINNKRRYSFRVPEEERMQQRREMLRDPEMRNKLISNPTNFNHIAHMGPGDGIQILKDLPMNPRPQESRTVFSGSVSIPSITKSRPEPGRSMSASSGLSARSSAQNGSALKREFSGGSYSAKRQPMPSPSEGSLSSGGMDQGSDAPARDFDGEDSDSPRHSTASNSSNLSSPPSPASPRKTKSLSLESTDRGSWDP
Chain of CLK4 (Q9HAZ1 whole entry): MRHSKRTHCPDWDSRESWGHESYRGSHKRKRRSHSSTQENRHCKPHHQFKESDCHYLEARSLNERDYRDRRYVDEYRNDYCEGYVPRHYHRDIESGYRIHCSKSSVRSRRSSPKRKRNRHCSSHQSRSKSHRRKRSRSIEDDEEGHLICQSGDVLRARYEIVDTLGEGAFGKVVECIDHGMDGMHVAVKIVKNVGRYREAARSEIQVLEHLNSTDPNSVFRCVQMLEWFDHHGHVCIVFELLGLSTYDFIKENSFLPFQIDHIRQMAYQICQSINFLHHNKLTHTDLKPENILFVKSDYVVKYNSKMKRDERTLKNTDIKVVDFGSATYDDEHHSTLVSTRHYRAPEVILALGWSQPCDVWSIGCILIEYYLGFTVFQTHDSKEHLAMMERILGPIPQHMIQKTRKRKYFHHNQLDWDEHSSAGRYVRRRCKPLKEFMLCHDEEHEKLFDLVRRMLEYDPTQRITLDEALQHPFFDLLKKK
Chain of DAPK2 (Q9UIK4 whole entry): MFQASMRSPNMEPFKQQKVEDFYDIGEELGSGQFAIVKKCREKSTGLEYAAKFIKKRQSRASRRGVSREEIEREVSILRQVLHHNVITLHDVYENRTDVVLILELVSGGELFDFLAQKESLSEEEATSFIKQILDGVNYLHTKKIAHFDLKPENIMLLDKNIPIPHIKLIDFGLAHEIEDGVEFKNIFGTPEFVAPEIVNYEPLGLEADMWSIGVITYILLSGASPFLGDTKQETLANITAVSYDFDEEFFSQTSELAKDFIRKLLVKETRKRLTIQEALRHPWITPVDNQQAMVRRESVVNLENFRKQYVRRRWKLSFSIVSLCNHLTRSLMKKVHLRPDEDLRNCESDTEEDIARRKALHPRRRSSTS

Question: With `COc1ccc(OC)c(CCC(=O)Nc2cc(-c3nc(SC)[nH]c3-c3ccc(F)cc3)ccn2)c1` [11b, 3-(2,5-Dimethoxyphenyl)-N-(4-(5-(4-fluorophenyl)-2-(methylthio)-1H-imidazol-4-yl)-pyridin-2-yl)-propanamide] as the molecule, how does the remaining activity at 0.1 µM (CAMK2G) read?
Answer: 105%

Question: What about the remaining activity at 0.1 µM (ASK1) of the same molecule?
Answer: 93%

Question: And the remaining activity at 0.1 µM (ARK5)?
Answer: 88%

Question: And the remaining activity at 0.1 µM (CLK1)?
Answer: 105%

Question: And the remaining activity at 0.1 µM (DMPK)?
Answer: 103%

Question: And the remaining activity at 0.1 µM (EPHA3)?
Answer: 97%

Question: And the remaining activity at 0.1 µM (ALK (GST-HIS-tag))?
Answer: 114%

Question: What about the remaining activity at 0.1 µM (CAMK2D) of the same molecule?
Answer: 96%

Question: What about the remaining activity at 0.1 µM (CLK4) of the same molecule?
Answer: 95%

Question: What about the remaining activity at 0.1 µM (BUB1B) of the same molecule?
Answer: 102%

Question: And the remaining activity at 0.1 µM (EPHA5)?
Answer: 97%

Question: What about the remaining activity at 0.1 µM (BRSK2) of the same molecule?
Answer: 105%

Question: What about the remaining activity at 0.1 µM (CDC42BPA) of the same molecule?
Answer: 104%

Question: And the remaining activity at 0.1 µM (AMPK-alpha1 aa1-550)?
Answer: 96%

Question: What about the remaining activity at 0.1 µM (BMPR1A) of the same molecule?
Answer: 102%

Question: And the remaining activity at 0.1 µM (CAMK2B)?
Answer: 103%

Question: And the “Residual activity (%)” value (CK1-gamma1)?
Answer: unaffected

Question: What about the remaining activity at 0.1 µM (CK1-gamma1; read-out: Residual activity (%)) of the same molecule?
Answer: 100%

Question: And the remaining activity at 0.1 µM (CSK)?
Answer: 101%

Question: What about the remaining activity at 0.1 µM (DAPK2) of the same molecule?
Answer: 95%

Question: And the remaining activity at 0.1 µM (CHK2)?
Answer: 98%

Question: And the remaining activity at 0.1 µM (ACV-R1)?
Answer: 95%

Question: What about the remaining activity at 0.1 µM (CK1-alpha1) of the same molecule?
Answer: 26%

Question: What about the remaining activity at 0.1 µM (BLK) of the same molecule?
Answer: 77%

Question: What about the remaining activity at 0.1 µM (Aurora-C) of the same molecule?
Answer: 93%

Question: And the remaining activity at 0.1 µM (CDK4/CycD1)?
Answer: 98%

Question: What about the remaining activity at 0.1 µM (CK2-alpha1) of the same molecule?
Answer: 97%

Question: What about the remaining activity at 0.1 µM (ABL2) of the same molecule?
Answer: 91%

Question: What about the remaining activity at 0.1 µM (EIF2AK2) of the same molecule?
Answer: 91%

Question: What about the remaining activity at 0.1 µM (AKT2 aa107-481) of the same molecule?
Answer: 97%

Question: What about the remaining activity at 0.1 µM (CDK7/CycH/MAT1) of the same molecule?
Answer: 102%

Question: What about the remaining activity at 0.1 µM (CAMKK2) of the same molecule?
Answer: 96%

Question: What about the remaining activity at 0.1 µM (EPHA1) of the same molecule?
Answer: 104%

Question: What about the remaining activity at 0.1 µM (CK1-delta) of the same molecule?
Answer: 3%

Question: What about the remaining activity at 0.1 µM (BRK) of the same molecule?
Answer: 98%

Question: And the remaining activity at 0.1 µM (DYRK1B)?
Answer: 101%

Question: And the remaining activity at 0.1 µM (CDC42BPB)?
Answer: 88%

Question: And the remaining activity at 0.1 µM (BRSK1)?
Answer: 89%

Question: What about the remaining activity at 0.1 µM (DNA-PK) of the same molecule?
Answer: 95%

Question: What about the remaining activity at 0.1 µM (CDK4/CycD3) of the same molecule?
Answer: 88%

Question: And the remaining activity at 0.1 µM (CHK1)?
Answer: 92%

Question: And the remaining activity at 0.1 µM (DCAMKL2)?
Answer: 94%

Question: What about the remaining activity at 0.1 µM (BTK) of the same molecule?
Answer: 105%
